Source: ChEMBL document CHEMBL1921782, “Crystal structure-based virtual screening for fragment-like ligands of the human histamine H(1) receptor” (J Med Chem, 2011)

Legend:
Histamine H1 receptor = Histamine H1 receptor (Homo sapiens, UniProt P35367); test: biochemical; format: cell-based, HEK293
Histamine H3 receptor = Histamine H3 receptor (Homo sapiens, UniProt Q9Y5N1); test: Displacement of [3H]N-alpha-methylhistamine from human histamine H3 receptor expressed in HEK293 cells after 1 to 1.5 hrs by scintillation counting; format: cell-based
Histamine H4 receptor = Histamine H4 receptor (Homo sapiens, UniProt Q9H3N8); test: Displacement of [3H]histamine from human histamine H4 receptor expressed in HEK293 cells after 1 to 1.5 hrs by scintillation counting; format: cell-based

Chain of Histamine H1 receptor (P35367 whole entry): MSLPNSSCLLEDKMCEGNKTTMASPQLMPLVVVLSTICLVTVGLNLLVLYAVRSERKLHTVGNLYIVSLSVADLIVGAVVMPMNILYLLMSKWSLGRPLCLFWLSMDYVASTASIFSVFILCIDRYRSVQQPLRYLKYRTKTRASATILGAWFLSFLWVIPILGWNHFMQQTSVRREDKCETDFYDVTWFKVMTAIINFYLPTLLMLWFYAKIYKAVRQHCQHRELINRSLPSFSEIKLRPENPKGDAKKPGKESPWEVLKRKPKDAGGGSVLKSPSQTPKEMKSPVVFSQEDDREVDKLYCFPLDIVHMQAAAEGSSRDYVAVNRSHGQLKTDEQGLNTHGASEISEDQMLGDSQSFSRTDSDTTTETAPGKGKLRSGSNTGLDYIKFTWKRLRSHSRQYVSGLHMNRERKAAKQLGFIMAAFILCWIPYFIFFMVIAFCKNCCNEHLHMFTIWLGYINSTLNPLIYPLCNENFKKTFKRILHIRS
Chain of Histamine H3 receptor (Q9Y5N1 whole entry): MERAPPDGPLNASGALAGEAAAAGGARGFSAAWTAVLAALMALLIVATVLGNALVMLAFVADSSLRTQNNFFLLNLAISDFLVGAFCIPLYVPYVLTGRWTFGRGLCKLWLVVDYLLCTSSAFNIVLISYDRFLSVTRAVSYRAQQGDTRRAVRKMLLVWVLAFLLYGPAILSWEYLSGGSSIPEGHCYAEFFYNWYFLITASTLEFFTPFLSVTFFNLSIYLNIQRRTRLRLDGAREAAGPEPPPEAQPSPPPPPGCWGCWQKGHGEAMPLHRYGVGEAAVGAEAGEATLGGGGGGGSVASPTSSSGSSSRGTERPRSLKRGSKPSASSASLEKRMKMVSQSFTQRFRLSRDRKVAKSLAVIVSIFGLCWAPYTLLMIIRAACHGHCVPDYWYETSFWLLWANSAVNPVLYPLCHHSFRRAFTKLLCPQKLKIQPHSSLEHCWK

Compound	Ki (Histamine H1 receptor; read-out: pKi (converted))	further results
C=CCn1c(=N)n(CC(=O)c2ccccc2)c2ccccc21	10700 nM	–
OC(CNC1CC1)Cn1c2ccccc2c2ccccc21 (stereo not given)	6310 nM	Ki (Histamine H4 receptor): 2400 nM
CN(C)CCSc1nc2ccccc2c2nnnn12	708 nM	–
CNCCCOc1cccc2ccccc12	794 nM	–
CNCC(O)CN1c2ccccc2C2CCCCC21 (stereo not given)	2290 nM	–
c1ccc2c(c1)n(CCN1CCCCC1)c1ncnn21	4170 nM	–
NC1=NC(c2ccccc2)n2c(nc3ccccc32)N1 (stereo not given)	427 nM	–
CC(C)NCc1ccc(-c2ccccc2)o1	4570 nM	–
CN1CCN(c2nc(N3CCCC3)c3cnn(C)c3n2)CC1	–	Ki (Histamine H4 receptor): 2900 nM; Ki (Histamine H1 receptor; read-out: Ki): 62 nM
NCCc1ccccc1Oc1ccccc1	11000 nM	–
c1ccc(Cc2ccccc2OC2CCNCC2)cc1	–	Ki (Histamine H1 receptor; read-out: Ki): 6 nM

Now from value to molecule, other results behind:

Ki (Histamine H1 receptor; read-out: pKi (converted))	Compound	further results
3240 nM	c1ccc2c(N3CCN(C4CCCC4)CC3)ncnc2c1	Ki (Histamine H3 receptor): 100 nM
708 nM	OCCN1CCN(c2ncnc3sccc23)CC1	–
1780 nM	c1cnc2c(c1)cc([C@@H]1CCCO1)n2CCN1CCCCC1	–
1910 nM	C1CCN(c2nc(N3CCCC3)nc(N3CCNCC3)n2)C1	–
2630 nM	c1ccc2c(c1)nc1n(CCN3CCCCC3)cnn21	Ki (Histamine H3 receptor): 600 nM
